For test [1], the system named is wild-type SARS-CoV-2 pseudovirus. Nature of the test: microbe, parasite or virus in culture. The class given is cell-based. As to conditions: for IC50: Severe acute respiratory syndrome-related coronavirus, HEK-293T, n = 5, read-out: IC50, blocking wild-type viral entry.
Test [2] has as its system omicron SARS-CoV-2 pseudovirus. Nature of the test: microbe, parasite or virus in culture. The format is cell-based. As to conditions: Severe acute respiratory syndrome-related coronavirus, HEK-293T; n = 5; read-out: IC50, entry of the omicron pseudovirus.

The structures appear in SMILES notation.

With `O=c1c2ccccc2nc2n1CCc1c-2[nH]c2ccccc12` [RU, rutaecarpine], the IC50 in test [1] was 1340 nM; in test [2], 1010 nM.

For the molecule `O=c1c2ccc(Nc3ccccc3)cc2nc2n1CCc1c-2[nH]c2ccccc12` [RU-75], in test [1], the “maximal inhibition compared with RU” value is on record as “almost double that of RU” and the IC50 was 460 nM. The IC50 in test [2] was 320 nM.

`O=C1c2ccc(Nc3ccccc3)cc2NC2=NCCc3c2n1c1ccccc31` [RU-184]: the “maximal inhibition compared with RU” value in test [1] is given as “almost double that of RU”. Further, the values for the concentration for half-maximal inhibition (IC50) in test [1] and in test [2] were 210 nM and 260 nM, respectively.

For orientation: IC50 means the concentration needed to halve the response being measured.

(Values after PMC11173897, “Computational Docking as a Tool in Guiding the Drug Design of Rutaecarpine Derivatives as Potential SARS-CoV-2 Inhibitors” (Molecules, 2024).)
